Reference: US20030129193A1 (priority 2001, published 2003)

Experiments:
[1] = system: 3LL mouse lung carcinoma; assay: In vivo tumor thrombosis, 3LL; design: species or system C57BL/6 mice; conditions: large (>800 mm^3) 3LL tumors
Description: Tumor test systems were of four types: i) 3LL mouse lung carcinoma growing subcutaneously in C57BL/6 mice; ii) C1300 mouse neuroblastoma growing subcutaneously in BALB/c nu/nu mice; iii) HT29 human colorectal carcinoma growing subcutaneously in BALB/c nu/nu mice; and iv) C1300 Muγ mouse neuroblastoma growing subcutaneously in BALB/c nu/nu mice. The C1300 Muγ tumor is an interferon-γ secreting transfectant derived from the C 1300 tumor (Watanabe et al., 1989).
To establish tumors, 10^6 to 1.5×10^7 tumor cells were injected subcutaneously into the right anterior flank of the mice. When tumors had grown to various sizes, mice were randomly assigned to different study groups. […] Fab′, or bispecific antibody. Other mice received equivalent quantities IgG, Fab′ or bispecific antibody alone. The injections were performed slowly into one of the tail veins over approximately 45 seconds, usually followed by 200 μl of saline.
Twenty-four hours after being injected with tTF or immunoglobulin-tTF conjugates, the mice were anesthetized with metophane and were exsanguinated by perfusion with heparinized saline. Tumors and normal tissues were excised and immediately fixed in 3% (v/v) formalin. Paraffin sections were cut and stained with hematoxylin and eosin. Blood vessels having open lumens containing erythrocytes and blood vessels containing thrombi were counted. […]

[2] = Clinical signs of toxicity and histology of normal organs; format: in vivo, SCID mice; conditions: for Symptoms: tTF alone
Description: Mice were closely observed after treatment for clinical signs of toxicity and clinical status was documented at defined time points (5 minutes, 10 minutes, 15 minutes, 30 minutes, 1 hour, 2 hours, 24 hours, 48 hours, 72 hours). Blood samples were taken from the tail vein at 1 hour, 2 hours and 24 hours to measure TNFα blood levels. Three days after treatment, the mice were anesthetized, blood samples were taken from the vena cava for coagulation tests, and an autopsy was performed to document any changes in gross pathology. Tumors, lymph node metastases and the major normal organs (heart, lung, brain, liver, kidney, colon, spleen, pancreas) were harvested and prepared for histological analysis.
Tissue samples harvested at the time of autopsy were fixed in 3% NBF (normal buffered formalin) and embedded in paraffin wax. Tissue blocs were cut, dewaxed and stained with hematoxilin and eosin (H&E). Tissue sections were analyzed on a light microscope by two independent investigators and histological findings were documented. Tumor sections with necrotic areas were scanned with a GS-700 imaging densitometer (Biorad, Hercules, Calif.) and areas of necrosis were calculated as % of total section area. Statistical Analysis was performed using SPSS software (SPSS Science Software, Erkrath, Germany) applying the Mann-Whitney-U-test for ungrouped data.

[3] = system: factor X; assay: Cell free two-stage coagulation assay; format: biochemical; conditions: Factor Xa generation, absorption at 405 nm
Description: In vitro coagulation activity was tested in a cell free two-stage coagulation assay. Negatively charged phospholipids at a final concentration of 50 μM (phosphatidylserine and phosphatidylcholine from Sigma, Taufkirchen, Germany) in calcium buffer (50 mM Tris pH=8.1, 150 mM NaCl, 2 mg/ml BSA, 5 mM Ca^++) were mixed with Factor VIIa (Sigma, Taufkirchen, Germany) at 10 nM and with samples or controls and incubated for five min at 37° C. Factor X was added to a final concentration of 30 nM and samples were incubated for 5 min at room temperature. Finally, the chromogenic substrate S2765 (Haemochrom, Essen, Germany) was added in a 100 mM EDTA solution. Factor Xa generation as a measure of Tissue Factor activity was determined by the increase in the absorption at 405 nm.
Negatively charged phospholipids at a final concentration of 50 μM (phosphatidylserine and phosphatidylcholine from Sigma, St. Louis, Mo.) in calcium buffer (50 mM Tris pH=8.1, 150 mM NaCl, 2 mg/ml BSA, 5 mM Ca^++) were mixed with Factor VIIa (Sigma. St. Louis, Mo.) at 10 nM and with samples or controls and incubated for five minutes at 37° C. Factor X (Sigma, St. Louis, Mo.) was added to a final concentration of 30 nM and samples were incubated for 5 minutes at room temperature. […] Factor Xa generation as a measure of tissue factor activity was determined by the increase in the absorption at 405 nm.

[4] = system: bEnd 3 cells; assay: Cell bound coagulation assay, stimulated endothelial cells; format: cell-based, mouse; conditions: for Factor Xa generation: mix with 0.5 μg/ml factor VIIa; for Factor Xa generation due to Factor VIIa production: mix with 2 μg/ml factor VII and 0.01 μg/ml factor VIIa, factor VII background subtracted
Description: To assay the coagulation induction of stimulated versus unstimulated endothelial cells, bEnd 3 cells were seeded in 48 well tissue culture plates at a density of 1×10^4 cells per well and allowed to adhere overnight. Cells were stimulated with endotoxin (0.5 μg/ml and 10 μg/ml) or TNFα (500 U/ml) for 4 h at 37° C. […] After incubation for 45 min at room temperature, cells were washed and incubated with various coagulation factor mixes as follows: (1) 0.5 μg/ml factor VIIa in a mix containing 2.8 μg/ml factor IX, 3.4 μg/ml factor X, 50 μM phospholipids, in calcium buffer (as specified above); (2) 0.01 μg/ml factor VIIa in a mix as in (1); (3) 2 μg/ml factor VII (Calbiochem-Novabiochem, San Diego, Calif.) in a mix as in (1); (4) 2 […] factor VII, 0.01 μg/ml factor VIIa in a mix as in (1). The supernatant of wells was transferred into a 96 well ELISA plate. Substrate S2765 was added and Factor Xa generation measured alongside different concentrations of Factor Xa standard (7 nkatS2222; 0.7 nkatS2222; 0.07 nkatS2222). OD405nm values were calculated as nkatS2222 Factor Xa from the Factor Xa standard curve.
bEnd 3 cells were seeded in 48 well tissue culture plates at a density of 1×10^4 cells per well and allowed to adhere overnight. Cells were stimulated with endotoxin (0.5 μg/ml and 10 μg/ml) or TNFα (500 U/ml) for 4 h at 37° C. […] After incubation for 45 min at room temperature, cells were washed and incubated with coagulation factor mix as follows: 0.5 μg/ml factor VIIa in a mix containing 2.8 μg/ml factor IX, 3.4 μg/ml factor X, 50 μM phospholipids, in calcium buffer; supernatant of wells was transferred into a 96 well ELISA plate. Substrate S2765 was added and Factor Xa generation measured alongside different concentrations of Factor Xa standard (7 nkatS2222; 0,7 nkatS2222; 0,07 nkatS2222). OD405nm values were calculated as nkatS2222 Factor Xa from the Factor Xa standard curve.

[5] = system: factor X; conditions: appropriate phospholipid membrane environment; cited from earlier work

## tTF: extracellular domain of the mature Tissue Factor protein (amino acid 1-219)
[1]
  tumor vessels thrombosed, average: 62%
[2]; light microscopy, three days after treatment
  histological findings in normal organs: No histological abnormalities
[2]; listed as TTF
  Symptoms: None
[2]; listed as endotoxin-free tTF
  Symptoms: no clinical signs of toxicity
[3]
  coagulation activities before and after endotoxin removal: the same
[4]; stimulation with 0.5 μg/ml LPS
  Factor Xa generation: 2.00 nkats2222
  Factor Xa generation due to Factor VIIa production: 3.00 nkats2222
[4]; stimulation with 10 μg/ml LPS
  Factor Xa generation: 2.91 nkats2222
[4]; stimulation with Medium
  Factor Xa generation: 0.40 nkats2222
  Factor Xa generation due to Factor VIIa production: 0.70 nkats2222
[4]; stimulation with TNFα (500 U/ml)
  Factor Xa generation: 0.67 nkats2222
[4]; stimulation with TNFα
  Factor Xa generation due to Factor VIIa production: 1.91 nkats2222
[5]
  factor X-activating activity, times less than native transmembrane TF: approximately 10^5 times
